According to the supplement of paper PMC10307832:

How the values were obtained:
Test in all cases: relative viability (nuclei count vs DMSO), 5 days (fraction); higher = more cells survive
IA-LM = system: IA-LM
Method in brief: (§1)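 Five library-drug doses in √10 steps were combined with a fixed anchor-drug dose, or a single drug was given alone, by pin tool to lung cancer cell lines in 1536-well plates the day after seeding. Nuclei were stained and counted after 5 days. Relative viability is the nuclei count in treated wells over that in vehicle wells, taken as the median of duplicate plates.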

LCLC-97TM1 = system: LCLC-97TM1
Method in brief: as §1

NCI-H1355 = system: NCI-H1355
Method in brief: as §1

NCI-H1648 = system: NCI-H1648
Method in brief: as §1

NCI-H1993 = system: NCI-H1993
Method in brief: as §1

NCI-H23 = system: NCI-H23
Method in brief: as §1

NCI-H322M = system: NCI-H322M
Method in brief: as §1

NCI-H596 = system: NCI-H596
Method in brief: as §1

UMC-11 = system: UMC-11
Method in brief: as §1

CC(=O)O[C@@]12CO[C@@H]1C[C@H](O)[C@@]1(C)C(=O)[C@H](O)C3=C(C)[C@@H](OC(=O)[C@H](O)[C@@H](NC(=O)OC(C)(C)C)c4ccccc4)C[C@@](O)([C@@H](OC(=O)c4ccccc4)[C@H]21)C3(C)C [Docetaxel] + O=C(CCCCCCC(=O)Nc1ccccc1)NO [Vorinostat] (partner 1 µM)
relative viability (IA-LM; first compound 0.0002 µM): 0.723 | relative viability (IA-LM; first compound 0.000632 µM): 0.328 | relative viability (IA-LM; first compound 0.002 µM): 0.145 | relative viability (IA-LM; first compound 0.006325 µM): 0.0958 | relative viability (IA-LM; first compound 0.02 µM): 0.0566 | relative viability (LCLC-97TM1; first compound 0.0002 µM): 0.364 | relative viability (LCLC-97TM1; first compound 0.000632 µM): 0.187 | relative viability (LCLC-97TM1; first compound 0.002 µM): 0.116 | relative viability (LCLC-97TM1; first compound 0.006325 µM): 0.104 | relative viability (LCLC-97TM1; first compound 0.02 µM): 0.0624 | relative viability (NCI-H1355; first compound 0.0002 µM): 0.631 | relative viability (NCI-H1355; first compound 0.000632 µM): 0.626 | relative viability (NCI-H1355; first compound 0.002 µM): 0.382 | relative viability (NCI-H1355; first compound 0.006325 µM): 0.244 | relative viability (NCI-H1355; first compound 0.02 µM): 0.176 | relative viability (NCI-H1648; first compound 0.0002 µM): 0.487 | relative viability (NCI-H1648; first compound 0.000632 µM): 0.378 | relative viability (NCI-H1648; first compound 0.002 µM): 0.255 | relative viability (NCI-H1648; first compound 0.006325 µM): 0.301 | relative viability (NCI-H1648; first compound 0.02 µM): 0.155 | relative viability (NCI-H1993; first compound 0.0002 µM): 0.594 | relative viability (NCI-H1993; first compound 0.000632 µM): 0.499 | relative viability (NCI-H1993; first compound 0.002 µM): 0.376 | relative viability (NCI-H1993; first compound 0.006325 µM): 0.392 | relative viability (NCI-H1993; first compound 0.02 µM): 0.246 | relative viability (NCI-H23; first compound 0.0002 µM): 0.55 | relative viability (NCI-H23; first compound 0.000632 µM): 0.305 | relative viability (NCI-H23; first compound 0.002 µM): 0.165 | relative viability (NCI-H23; first compound 0.006325 µM): 0.155 | relative viability (NCI-H23; first compound 0.02 µM): 0.0848 | relative viability (NCI-H322M; first compound 0.0002 µM): 0.801 | relative viability (NCI-H322M; first compound 0.000632 µM): 0.843 | relative viability (NCI-H322M; first compound 0.002 µM): 0.906 | relative viability (NCI-H322M; first compound 0.006325 µM): 0.711 | relative viability (NCI-H322M; first compound 0.02 µM): 0.481 | relative viability (NCI-H596; first compound 0.0002 µM): 0.639 | relative viability (NCI-H596; first compound 0.000632 µM): 0.46 | relative viability (NCI-H596; first compound 0.002 µM): 0.393 | relative viability (NCI-H596; first compound 0.006325 µM): 0.307 | relative viability (NCI-H596; first compound 0.02 µM): 0.144 | relative viability (UMC-11; first compound 0.0002 µM): 0.402 | relative viability (UMC-11; first compound 0.000632 µM): 0.287 | relative viability (UMC-11; first compound 0.002 µM): 0.155 | relative viability (UMC-11; first compound 0.006325 µM): 0.203 | relative viability (UMC-11; first compound 0.02 µM): 0.108

COc1cc2nccc(Oc3ccc(NC(=O)Nc4cc(C)on4)c(Cl)c3)c2cc1OC [Tivozanib] + O=C(CCCCCCC(=O)Nc1ccccc1)NO [Vorinostat] (partner 1 µM)
relative viability (IA-LM; first compound 0.005 µM): 0.93 | relative viability (IA-LM; first compound 0.01581 µM): 0.981 | relative viability (IA-LM; first compound 0.05 µM): 0.872 | relative viability (IA-LM; first compound 0.5 µM): 0.836 | relative viability (LCLC-97TM1; first compound 0.005 µM): 0.619 | relative viability (LCLC-97TM1; first compound 0.01581 µM): 0.69 | relative viability (LCLC-97TM1; first compound 0.05 µM): 0.686 | relative viability (LCLC-97TM1; first compound 0.1581 µM): 0.732 | relative viability (LCLC-97TM1; first compound 0.5 µM): 0.323 | relative viability (NCI-H1355; first compound 0.005 µM): 0.58 | relative viability (NCI-H1355; first compound 0.01581 µM): 0.612 | relative viability (NCI-H1355; first compound 0.05 µM): 0.68 | relative viability (NCI-H1355; first compound 0.1581 µM): 0.437 | relative viability (NCI-H1355; first compound 0.5 µM): 0.588 | relative viability (NCI-H1648; first compound 0.005 µM): 0.453 | relative viability (NCI-H1648; first compound 0.01581 µM): 0.706 | relative viability (NCI-H1648; first compound 0.05 µM): 0.804 | relative viability (NCI-H1648; first compound 0.1581 µM): 0.796 | relative viability (NCI-H1648; first compound 0.5 µM): 0.423 | relative viability (NCI-H1993; first compound 0.005 µM): 0.692 | relative viability (NCI-H1993; first compound 0.01581 µM): 0.579 | relative viability (NCI-H1993; first compound 0.05 µM): 0.965 | relative viability (NCI-H1993; first compound 0.1581 µM): 0.618 | relative viability (NCI-H1993; first compound 0.5 µM): 0.585 | relative viability (NCI-H23; first compound 0.005 µM): 0.522 | relative viability (NCI-H23; first compound 0.01581 µM): 0.484 | relative viability (NCI-H23; first compound 0.05 µM): 0.6 | relative viability (NCI-H23; first compound 0.5 µM): 0.375 | relative viability (NCI-H322M; first compound 0.005 µM): 0.768 | relative viability (NCI-H322M; first compound 0.01581 µM): 0.857 | relative viability (NCI-H322M; first compound 0.05 µM): 0.87 | relative viability (NCI-H322M; first compound 0.1581 µM): 0.665 | relative viability (NCI-H322M; first compound 0.5 µM): 0.744 | relative viability (NCI-H596; first compound 0.005 µM): 0.618 | relative viability (NCI-H596; first compound 0.01581 µM): 0.569 | relative viability (NCI-H596; first compound 0.05 µM): 0.683 | relative viability (NCI-H596; first compound 0.5 µM): 0.716 | relative viability (UMC-11; first compound 0.005 µM): 0.404 | relative viability (UMC-11; first compound 0.01581 µM): 0.36 | relative viability (UMC-11; first compound 0.05 µM): 0.349 | relative viability (UMC-11; first compound 0.1581 µM): 0.328 | relative viability (UMC-11; first compound 0.5 µM): 0.329
